{"source": "PubChem BioAssay AID720625", "about": "(Broad Institute, 2013)", "system": "HRAS cells, caspase 3/7 apoptosis luminescence, multiple timepoints", "assay": "caspase 3/7 apoptosis readout in HRAS cells, mechanism study for HRAS target identification, cell-based, caspase 3/7 luminescence, plate reader, dry powder (AID 720625)", "note": "Results filed as inconclusive are left out."}
{"smiles": "COc1ccc(N(C(=O)CCl)C(C(=O)NCCc2ccccc2)c2cccs2)cc1Cl", "note": "(centres undefined)", "values": [{"measurement": "AC40", "value": 7.66, "unit": "µM"}, {"measurement": "AC40", "setting": "measured here: timepoint 1", "value": 22.2, "unit": "µM"}, {"measurement": "AC40", "setting": "measured here: timepoint 2", "value": 0.177, "unit": "µM"}, {"measurement": "AC40", "setting": "measured here: timepoint 3", "value": 0.551, "unit": "µM"}]}
